Patent US20220274947A1, “NOVEL HETEROARYL-TRIAZOLE COMPOUNDS AS PESTICIDES” (Bayer Aktiengesellschaft, priority 2019, published 2022)

Key:
Assay type in all cases: in vivo
Spodoptera frugiperda = Spodoptera frugiperda spray test; details: in Zea mays, 168 h, read-out: activity (mortality)
Summary of the method: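 Percent kill of fall armyworm caterpillars was assessed 7 days after infesting dried, treated maize leaf sections. Treatment was a spray of compound in acetone/dimethylformamide, diluted with water containing emulsifier at 1000 ppm.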

[1] = tested on: Musca domestica strain WHO—N; assay: Musca domestica test (MUSCDO surface treatment & contact assay); details: exposure 30 minutes, 24 hours after contact, read-out: efficacy (mortality); for mortality at 20 mg/m2: surface concentration 20 mg/m^2, glazed tile; for mortality at 4 mg/m2: surface concentration 4 mg/m^2, glazed tile
Summary of the method: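 Compound dissolved in acetone (2 mg/ml) with 2000 ppm rapeseed oil methyl ester and pipetted onto glazed tile; after acetone evaporation, adult flies exposed to dried surface for 30 minutes. Mortality (%) scored 24 hours after contact.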

Diabrotica balteata = Diabrotica balteata spray test; details: 168 h, wheat seeds, larvae, after 7 days, read-out: activity (efficacy: 100% means all seedlings have grown up like in the untreated, uninfected control); for pest or weed control at 32 µg/disc, 100 g/ha: application rate 100 g/ha (=32 μg/well); for pest or weed control at 160 µg/disc, 500 g/ha: application rate 500 g/ha (=160 μg/well)
Summary of the method: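 Efficacy (%) was scored 7 days after spraying, with 100% meaning growth like the untreated, uninfected control and 0% meaning no seedling grew. Spray solutions of compound in acetone/DMF with emulsifier-containing water went onto 1-day-germinated wheat seeds, and each unit was then infested with 10-20 banded cucumber beetle larvae.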

Myzus persicae [2] = assay: Myzus persicae oral test; details: 120 h, read-out: activity (mortality)
Summary of the method: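 Percent mortality was recorded at day 5, where 0% means no aphids killed. Compound prepared from an acetone concentrate diluted in water and combined with IPL41 medium containing sugar was offered to mixed-stage green peach aphids, which sucked it through a parafilm seal.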

Ctenocephalides felis [3] = assay: Ctenocephalides felis oral test (CTECFE Oral); details: 48 h, read-out: activity (mortality)
Summary of the method: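 Percent mortality was recorded 2 days after roughly 20 adult Ctenocephalides felis fed on treated cattle blood. The blood was warmed to 37 °C beneath a parafilm membrane, with the fleas kept at room temperature. Compound was dissolved in DMSO and diluted into the blood to test concentration.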

Rhipicephalus microplus [4] = assay: Rhipicephalus (Boophilus) microplus in-vitro contact test, larval cattle tick, strain Parkhurst (BOOPMI Cont); details: application rate 5 μg/cm^2 (=500 g/ha), tick larvae, after 48 hours, read-out: activity (efficacy: 100% means all larvae are dead or moribund)
Summary of the method: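 After 48 h at 27° C. and 85% humidity, percent dead or moribund larvae was scored from negative geotactic behaviour. Larvae (20-50, Parkhurst strain, synthetic pyrethroid-resistant) were exposed in tubes coated with compound from acetone, 900 ppm corresponding to 5 μg/cm^2.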

Nezara viridula = Nezara viridula spray test; details: in Hordeum vulgare, 96 h, barley plants, larvae, after 4 days; for mortality at 500 g/ha: application rate 500 g/ha
Experimental: Nezara viridula—Spray Test Solvent: 78.0 parts by weight of acetone • • 1.5 parts by weight of dimethylformamide Emulsifier: alkylarylpolyglycol ether
To produce a suitable preparation of active compound, 1 part by weight of active compound is mixed with the stated amount of solvent, and the concentrate is diluted with water, containing an emulsifier concentration of 1000 ppm, to the desired concentration. Further test concentrations are prepared by dilution with emulsifier containing water.
Barley plants (Hordeum vulgare) infested with larvae of the southern green stink bug (Nezara viridula) are sprayed with a test solution containing the desired concentration of the active ingredient.
After 4 days mortality in % is determined. 100% means all the stink bugs have been killed; 0% means none of the stink bugs have been killed.

Rhipicephalus microplus [5] = assay: Rhipicephalus (Boophilus) microplus injection test (BOOPMI Inj); details: 168 h, injection into adult engorged female ticks, egg deposition after 7 days, read-out: activity (efficacy: 100% means all eggs are infertile); for pest or weed control at 0.004 mg: application rate 4 μg/tick; for pest or weed control at 0.02 mg: application rate 20 μg/tick
Summary of the method: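 Compound in DMSO, 1 μL, injected abdominally into five adult engorged females, which were then held in a climate chamber. Read-out is egg fertility, scored from deposition at 7 days, with unclear eggs followed to hatching (~42 days); 0% means all eggs fertile, 100% all infertile.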

Rhipicephalus sanguineus = Rhipicephalus sanguineus in-vitro contact test, adult brown dog ticks (RHIPSA Cont); details: 48 h, after 48 hours, read-out: activity (efficacy: 100% means all ticks are dead or moribund); for pest or weed control at 1 µg/cm2, 100 g/ha: application rate 1 μg/cm^2 (=100 g/ha); for pest or weed control at 5 µg/cm2, 500 g/ha: application rate 5 μg/cm^2 (=500 g/ha)
Summary of the method: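 Compound in acetone (9 mg/mL stock, diluted to test concentration) is coated onto inner walls of glass tubes by rotation for 2 h at 30 rpm. Efficacy is read after 48 h: ticks are tapped down and held on a 45-50° C plate for at most 5 min, and immotile or uncoordinated ones that fail to climb away count as dead or moribund.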

Ctenocephalides felis [6] = assay: Ctenocephalides felis in-vitro contact test, adult cat flea (CTECFE Cont); details: application rate 5 μg/cm^2 (=500 g/ha), adult cat fleas, after 48 hours, read-out: activity (efficacy: 100% means all fleas are dead or moribund)
Summary of the method: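 Efficacy, as percent of fleas dead or moribund, was scored 48 h after adults (5-10 per tube) were placed in glass tubes whose walls carried dried compound at 5 μg/cm^2 (900 ppm solution). Moribund meant failing to climb away from a 45-50° C. hot plate within 5 min.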

[7] = tested on: Aedes aegypti strain MONHEIM; assay: Aedes aegypti test (AEDSAE surface treatment & contact assay); details: exposure 30 minutes, 24 hours after contact, read-out: efficacy (mortality)
Summary of the method: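 Compound dissolved in acetone (2 mg/ml) with 2000 ppm rapeseed oil methyl ester, pipetted onto glazed tile and dried. Adult mosquitoes exposed on the surface for 30 min; percent mortality scored 24 h after contact.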

Myzus persicae [8] = assay: Myzus persicae spray test; details: in Brassica rapa, foliar, 120 h, read-out: activity (mortality), application rate 100 g/ha, spray, Chinese cabbage leaf disks, after 5 days
Experimental: Myzus persicae—Spray Test Solvent: 78.0 parts by weight acetone • 1.5 parts by weight dimethylformamide Emulsifier: alkylarylpolyglycol ether To produce a suitable preparation of active compound, 1 part by weight of active compound is mixed with the stated amount of solvents and is diluted with water, containing an emulsifier concentration of 1000 ppm, to the desired concentration. Further test concentrations are prepared by dilution with emulsifier containing water.
Chinese cabbage (Brassica pekinensis) leaf disks infected with all instars of the green peach aphid (Myzus persicae), are sprayed with a preparation of the active ingredient of the desired concentration.
After 5 days mortality in % is determined. 100% means all aphids have been killed and 0% means none of the aphids have been killed.

Row | SMILES | mortality at 100 g/ha (Spodoptera frugiperda) [%] | mortality at 500 g/ha (Spodoptera frugiperda) [%] | mortality at 20 mg/m2 [1] [%] | pest or weed control at 32 µg/disc, 100 g/ha (Diabrotica balteata) [%] | pest or weed control at 160 µg/disc, 500 g/ha (Diabrotica balteata) [%] | mortality at 4 ppm (Myzus persicae [2]) [%] | mortality at 100 ppm (Ctenocephalides felis [3]) [%] | pest or weed control at 5 µg/cm2 (Rhipicephalus microplus [4]) [%] | mortality at 500 g/ha (Nezara viridula) [%] | pest or weed control at 0.004 mg (Rhipicephalus microplus [5]) [%] | pest or weed control at 0.02 mg (Rhipicephalus microplus [5]) [%] | pest or weed control at 1 µg/cm2, 100 g/ha (Rhipicephalus sanguineus) [%] | pest or weed control at 5 µg/cm2, 500 g/ha (Rhipicephalus sanguineus) [%] | mortality at 100 g/ha (Nezara viridula; application rate 100 g/ha) [%] | pest or weed control at 5 µg/cm2 (Ctenocephalides felis [6]) [%] | mortality at 4 mg/m2 [1] [%] | mortality at 4 mg/m2 ([7]; surface concentration 4 mg/m^2, glazed tile) [%] | mortality at 20 mg/m2 ([7]; surface concentration 20 mg/m^2, glazed tile) [%] | mortality at 100 g/ha (Myzus persicae [8]) [%]
1 | COc1nc([C@H](C)NC(=O)c2cc(C(F)(F)F)cc(C(F)(F)F)c2)n(-c2ccc(C#N)cn2)n1 [I-11] | 100 | 100 | 80 to 100 | 100 | 100 | 100 | 100 | 100 | 100 | 100 | 100 |  |  |  |  |  |  |  | 
2 | CC(C)c1nc([C@H](C)NC(=O)c2cc(Cl)nc(C(F)(F)F)c2)n(-c2ccc(C#N)cn2)n1 [I-28] | 100 |  | 80 to 100 | 100 |  | 90 | 100 | 100 |  | 100 | 100 | 100 | 100 | 90 |  |  |  |  | 
3 | C[C@H](NC(=O)c1cc(Cl)cc(OC(F)(F)F)c1)c1ncnn1-c1ncc(Br)s1 [II-15, N-{(1S)-1-[1-(5-bromo-1,3-thiazol-2-yl)-1H-1,2,4-triazol-5-yl]ethyl}-3-chloro-5-(trifluoromethoxy)benzamide] |  | 100 | 80 to 100 | 100 | 100 |  | 100 | 100 | 90 | 100 | 100 |  |  |  | 80 |  |  |  | 
4 | C[C@H](NC(=O)c1cc(Cl)cc(OC(F)(F)F)c1)c1ncnn1-c1ncc(I)s1 [II-21] |  | 100 | 80 to 100 | 100 | 100 |  | 100 | 100 | 90 | 100 | 100 |  |  |  | 80 | 80 to 100 |  |  | 
5 | C[C@H](NC(=O)c1cc(I)cc(C(F)(F)F)c1)c1ncnn1-c1ccc(C#N)cn1 [II-46] | 100 | 100 | 80 to 100 | 100 | 100 |  | 100 | 100 | 100 | 100 | 100 | 100 | 100 |  |  | 80 to 100 | 80 to 100 | 80 to 100 | 
6 | C[C@H](NC(=O)c1cc(Cl)cc(C(F)(F)F)c1)c1ncnn1-c1ccc(C(=O)N(CC(F)(F)F)C2CC2)cn1 [II-70] | 100 | 100 |  | 100 | 100 |  |  | 100 | 90 | 100 | 100 | 100 | 100 |  | 100 |  |  |  | 
7 | C[C@H](NC(=O)c1cc(Cl)cc(C(F)(F)F)c1)c1ncnn1-c1ccc(C(=O)N(C)CC#N)cn1 [II-72] | 100 | 100 |  | 100 | 100 | 100 |  | 100 | 100 | 100 | 100 | 100 | 100 |  | 100 |  |  |  | 
8 | COCCN(C)C(=O)c1ccc(-n2nc(C)nc2[C@H](C)NC(=O)c2cc(C(F)(F)F)cc(C(F)(F)F)c2)nc1 [II-98] | 83 |  |  |  |  | 100 | 100 | 100 |  | 100 |  | 100 | 100 |  |  |  |  |  | 90
